Results reported in patent US20070197594A1, “Cyclic amine derivative or salt thereof” (ASTELLAS PHARMA INC., priority 2004, published 2007).
Counter-ions that a name gives are not always drawn.

Target: NMDA receptor
Experiment: MK-801 binding test ([3H]MK-801-binding assay, rat membrane specimen)
Conditions: NMDA receptor affinity, [3H]MK-801 4 nM in assay, Ki computed from IC50
Procedure: 1) Preparation of Specimens of Rat Meninges:
The whole brain was taken out from 10-week-age SD rats (30 heads, by Nippon SLC), and the cerebellum was removed from it. A 0.32 M sucrose solution was added to the part containing the cerebrum, cut in a mixer, and homogenized with a Teflon™ homogenizer. This was centrifuged at 2800 rpm and 4° C. for 15 minutes, and the resulting supernatant was again centrifuged at 15000 g and 4° C. for 20 minutes. The pellets were suspended in 50 mM Tris-HCL (pH 7.5) containing 0.08% Triton X-100, and kept statically on ice for 30 minutes, then centrifuged at 15000 g and 4° C. for 20 minutes. The pellets were suspended in 50 mM Tris-HCl (pH 7.5) added thereto, and centrifuged at 15000 g and 4° C. for 20 minutes. 50 mM Tris-HCl (pH 7.5) was again added to the pellets, and centrifuged in the same manner as before. The pellets were suspended in 20 ml of 50 mM Tris-HCl (pH 7.5) added thereto, and homogenized with a Teflon™ homogenizer. The membrane specimen was divided into small tubes and stored in a deep freezer (−80° C.). Before use, this washed twice with 5 mM Tris-HCl (pH 7.5) of five times that of the membrane specimen. Its concentration was controlled at 1 mg protein/ml with 5 mM Tris-HCl (pH 7.5) added to it, and this was used for assay.
50 μl of the rat membrane specimen (1 mg protein/ml) was added to a solution of a test compound dissolved in 1 μl of DMSO.

**Q.** `CN1CCC(C2(O)c3ccccc3CC2(C)C)CC1` (stereo not shown) [Example 1, 2,2-Dimethyl-1-(1-methylpiperidin-4-yl)indan-1-ol monofumarate] was tested. Which Ki did it give?
**A.** Its Ki is 1400 nM.

**Q.** With `CN1CCC(C2(O)c3ccccc3CCC2(C)C)CC1` (stereo not shown) [Example 53] as the molecule, how does the Ki read?
**A.** Its Ki is 4100 nM.

**Q.** With `CN1CCC(C2(O)c3c(ccc(F)c3Br)CC2(C)C)CC1` (stereo not shown) [Example 34] as the molecule, how does the Ki read?
**A.** The Ki was 1800 nM.

**Q.** `CN1CCC(C2(O)c3c(c(F)cc4c3OCC4)CC2(C)C)CC1` (stereo not shown) [Example 139, 5-Fluoro-7,7-dimethyl-8-(1-methylpiperidin-4-yl)-2,6,7,8-tetrahydro-2H-indeno[4,5-b]furan-8-ol fumarate] was tested. Which Ki did it give?
**A.** The Ki was 5000 nM.

**Q.** Which Ki does the source give for `CN1CCC(C23OCCOc4c(F)ccc(c42)CC3(C)C)CC1` (stereo not shown) [Example 143, 4-(9-Fluoro-5,5-dimethyl-2,3,5,6-tetrahydro-4aH-indeno[1,7-ef][1,4]dioxepin-4a-yl-1-methylpiperidine fumarate] here?
**A.** The Ki was 700 nM.

**Q.** With `COc1cc(F)c2c(c1OC)C(O)(C1CCN(C)CC1)C(C)(C)C2` (stereo not shown) [Example 101] as the molecule, how does the Ki read?
**A.** The Ki was 2100 nM.

**Q.** How did the Ki turn out when `COc1c(F)ccc2c1C1(CCC(CN3CCCC3)O1)C(C)(C)C2` (stereo not shown) [Example 145] was run?
**A.** The Ki was 8400 nM.

**Q.** For `CN1CCC(C2(O)c3cc(F)ccc3CC2(C)C)CC1` (stereo not shown) [Example 9], which Ki is on record?
**A.** Its Ki is 930 nM.

**Q.** How did the Ki turn out when `CN1CCC(C2(O)c3cc(Br)cc(F)c3CC2(C)C)CC1` (stereo not shown) [Example 32] was run?
**A.** The Ki was 440 nM.

**Q.** For `Cc1ccc2c(c1)C(O)(CC(C)(C)N)C(C)(C)C2` (stereo not shown) [Example 131, 1-(2-Amino-2-methylpropyl)-2,2,6-trimethylindan-1-ol fumarate], which Ki is on record?
**A.** The Ki was 4800 nM.

**Q.** How did the Ki turn out when `COc1ccc(F)c2c1C(O)(C1CCN(C)CC1)C(C)(C)C2` (stereo not shown) [Example 85] was run?
**A.** Its Ki is 6200 nM.

**Q.** With `CN1CCC(C2(O)c3c(Br)ccc(F)c3CC2(C)C)CC1` (stereo not shown) [Example 36] as the molecule, how does the Ki read?
**A.** Its Ki is 1900 nM.

**Q.** `CCOc1c(F)ccc2c1C(O)(C1CCN(C)CC1)C(C)(C)C2` (stereo not shown) [Example 98] was tested. Which Ki did it give?
**A.** Its Ki is 8400 nM.

**Q.** With `COc1c(F)ccc2c1C(O)(C1CCN(C)CC1)C(C)(C)C2` (stereo not shown) [Example 44] as the molecule, how does the Ki read?
**A.** Its Ki is 930 nM.

**Q.** Which Ki does the source give for `Cc1ccc2c(c1)C(O)(C1CCN(C)CC1)C(C)(C)C2` (stereo not shown) [Example 6, 2,2,6-trimethyl-1-(1-methylpiperidin-4-yl)indan-1-ol] here?
**A.** Its Ki is 880 nM.

**Q.** Which Ki does the source give for `CN1CCC(C2(O)c3ccc(Br)cc3CC2(C)C)CC1` (stereo not shown) [Example 15] here?
**A.** The Ki was 860 nM.

**Q.** `COc1c(C#N)cc(F)c2c1C(O)(C1CCN(C)CC1)C(C)(C)C2` (stereo not shown) [Example 113] was tested. Which Ki did it give?
**A.** The Ki was 900 nM.

**Q.** How did the Ki turn out when `COc1c(F)c(F)cc2c1C(O)(C1CCN(C)CC1)C(C)(C)C2` (stereo not shown) [Example 108] was run?
**A.** Its Ki is 5600 nM.

**Q.** With `CN1CCC(C2(O)c3cc(Cl)c(F)cc3CC2(C)C)CC1` (stereo not shown) [Example 28] as the molecule, how does the Ki read?
**A.** The Ki was 1000 nM.
